# In paper PMC12362111, “Cu/Zn-superoxide dismutase naturally fused with a β-propeller lactonase in Deinococcus radiodurans” (The Journal of Biological Chemistry, 2025):
# B1: six-bladed β-propeller domain of DrSOD (DrSOD^β-pro) (domain or fragment, Deinococcus radiodurans, UniProt Q9RYV4 185-462, looked up)
# chain: LSVRDYALPGPVDHPEGVAYDAKKGLIYTGSAQNGTIYAINAQSGAVTKFQEGGAYGRQVALGLKVDPQGRLWIAGGAQGTVSILTPDGMTLAVLETPKSPRPYINDLVLAPDGNFYVTDSSRPVIFRVDKALKLTAWLDLAGTPIKYGPGVNLNGIAATPDGKYLLAVQLNTGELWRIDLKTKAVKKVMDGLVNGDGLLLDGRTLYVARNKDQVVAKVSLSADYGSGQLVAQEPLNGLRFPATLAKVGNDLVVTQAQLDRIGGTPETPFKLTRFAKF
# notes: β-propeller (SGL) domain of DrSOD (DRA0202), Deinococcus radiodurans, UniProt Q9RYV4, residues Leu185-Phe462; Eluted as a mixture of monomer and dimer; source: E. coli BL21(DE3), purified (cOmplete His-Tag column, HRV3C, gel filtration); not shown: His6, N-terminal, cleaved
# Assays:
# DrSOD^β-pro = biological target: T1, DrSOD^β-pro (Deinococcus radiodurans, UniProt Q9RYV4); assay: pH-indicator (p-nitrophenol, […] nm) lactonase assay; type: biochemical; details: pH 7.0, 20 mM CaCl2; 2 mM substrate
# T1 construct: gene DR_A0202; C-terminal beta-propeller domain (Leu185-Phe462), N-terminal 6xHis removed with HRV3C, E. coli BL21(DE3), monomer and dimer
# [1] = biological target: the molecule itself; assay: SEC-MALS; 25 μM protein loaded on a gel filtration column (LW-803, SHODEX); MN buffer (50 mM MOPS, 100 mM NaCl, pH 7.0) for the holo forms, MN buffer with 5 mM EDTA for the metal-free apo state; monomer against dimer
Molecule,"pH-indicator (p-nitrophenol, 405 nm) lactonase assay (DrSOD^β-pro)",stoichiometry N [1]
O=C1Cc2ccccc2O1 [2-coumaranone],lactonase activity of DrSOD toward 2-coumaranone was attributed to DrSOD^β-pro but not DrSOD^SOD,–
B1,–,2
